What all share (type): functional
The subject of test [1] is Raji. Kind of test: Antitumor activity against human Raji cells assessed as DNA synthesis at 0.1 ug/mL by [3H]thymidine incorporation assay relative to control. (In general: Uptake of a labelled nucleoside into DNA is a usual measure of proliferation.)
Test [2] deals with Raji. Kind of test: Cell cycle arrest in human Raji cells assessed as accumulation in S phase at 0.1 ug/mL.
In test [3] the test system is Raji. The experiment in a line: Cell cycle arrest in human Raji cells assessed as accumulation in S phase at 0.5 ug/mL.
In test [4] the test system is Raji. The experiment in a line: Antitumor activity against human Raji cells assessed as DNA synthesis at 0.5 ug/mL by [3H]thymidine incorporation assay relative to control.
Test [5] relates to Raji. The experiment in a line: Antitumor activity against human Raji cells assessed as DNA synthesis at 1 ug/mL by [3H]thymidine incorporation assay relative to control.
Test [6] deals with Raji. Kind of test: Cell cycle arrest in human Raji cells assessed as accumulation in S phase at 1 ug/mL.

We go through eight molecules from ChEMBL document CHEMBL1158255, “New polyoxypregnane ester derivatives from Leptadenia hastata” (1996).

Regarding `CO[C@H]1[C@@H](O)[C@H](O[C@H]2[C@@H](OC)C[C@H](O[C@H]3[C@@H](OC)C[C@H](O[C@H]4[C@@H](OC)C[C@H](O[C@H]5CC[C@@]6(C)C(=CC[C@]7(O)[C@@H]6C[C@@H](OC(=O)/C=C/c6ccccc6)[C@@]6(C)[C@]7(O)CC[C@@]6(O)C(C)=O)C5)O[C@@H]4C)O[C@@H]3C)O[C@@H]2C)O[C@H](C)[C@H]1O[C@@H]1O[C@H](CO)[C@@H](O)[C@H](O)[C@H]1O`, the Activity with Raji [1] is reported as 41%; in the test with Raji [2], 22%; in the test on Raji [3] it was 11%; in the test with Raji [4] it was 21%; in the test with Raji [5], 14%; in the test with Raji [6] it was 4%.

Take `CO[C@H]1[C@@H](O)[C@H](O[C@H]2[C@@H](OC)C[C@H](O[C@H]3[C@@H](OC)C[C@H](O[C@H]4[C@@H](OC)C[C@H](O[C@H]5CC[C@@]6(C)C(=CC[C@]7(O)[C@@H]6C[C@@H](OC(=O)c6ccccc6)[C@@]6(C)[C@]7(O)CC[C@@]6(O)[C@H](C)OC(=O)/C=C/c6ccccc6)C5)O[C@@H]4C)O[C@@H]3C)O[C@@H]2C)O[C@H](C)[C@H]1O[C@@H]1O[C@H](CO)[C@@H](O)[C@H](O)[C@H]1O`: the Activity is reported as 15% in the test on Raji [1]; 4% in the test with Raji [2]; 6% in the test with Raji [3]; 14% with Raji [4]; 14% in the test on Raji [5]; 4% in the test with Raji [6].

As for `CO[C@@H]1[C@@H](O)[C@H](O[C@H]2[C@@H](OC)C[C@H](O[C@H]3[C@@H](OC)C[C@H](O[C@H]4[C@@H](OC)C[C@H](O[C@H]5CC[C@@]6(C)C(=CC[C@]7(O)[C@@H]6C[C@@H](OC(=O)c6ccccc6)[C@@]6(C)[C@]7(O)CC[C@@]6(O)[C@H](C)OC(=O)/C=C/c6ccccc6)C5)O[C@@H]4C)O[C@@H]3C)O[C@@H]2C)O[C@H](C)[C@H]1O[C@@H]1O[C@H](CO)[C@@H](O)[C@H](O)[C@H]1O`, the Activity with Raji [1] is on record as 13%; in the test with Raji [2], 5%; in the test with Raji [3], 4%; with Raji [4], 14%; in the test on Raji [5] it was 16%; in the test with Raji [6], 5%.

Take `COC1C[C@H](O[C@H]2[C@@H](OC)C[C@H](O[C@H]3[C@@H](OC)C[C@H](O[C@H]4CC[C@@]5(C)C(=CC[C@]6(O)[C@@H]5C[C@@H](OC(C)=O)[C@@]5(C)[C@]6(O)CC[C@@]5(O)C(C)=O)C4)O[C@@H]3C)O[C@@H]2C)O[C@H](C)[C@H]1O[C@@H]1O[C@H](C)[C@@H](O[C@@H]2O[C@H](CO)[C@@H](O)[C@H](O)[C@H]2O)[C@@H](OC)[C@H]1O` (single isomer, unassigned): the Activity with Raji [1] is recorded as 98%; in the test with Raji [2], 30%; in the test with Raji [3], 28%; in the test with Raji [4], 87%; with Raji [5], 69%; in the test on Raji [6], 26%.

With `COC1C[C@H](O[C@H]2[C@@H](OC)C[C@H](O[C@H]3[C@@H](OC)C[C@H](O[C@H]4CC[C@@]5(C)C(=CC[C@]6(O)[C@@H]5C[C@@H](OC(C)=O)[C@@]5(C)[C@]6(O)CC[C@@]5(O)[C@H](C)O)C4)O[C@@H]3C)O[C@@H]2C)O[C@H](C)[C@H]1O[C@@H]1O[C@H](C)[C@@H](O[C@@H]2O[C@H](CO)[C@@H](O)[C@H](O)[C@H]2O)[C@@H](OC)[C@H]1O` (single isomer, unassigned), the Activity in the test with Raji [1] amounted to 98%; in the test on Raji [2] it was 32%; in the test with Raji [3] it was 30%; with Raji [4], 83%; in the test on Raji [5] it was 69%; in the test with Raji [6], 28%.

Consider `COC1C[C@H](O[C@@H]2[C@@H](C)O[C@@H](O[C@H]3[C@@H](OC)C[C@H](O[C@H]4CC[C@@]5(C)C(=CC[C@]6(O)[C@@H]5C[C@@H](OC(=O)/C=C/c5ccccc5)[C@@]5(C)[C@]6(O)CC[C@@]5(O)[C@H](C)OC(=O)c5ccccc5)C4)O[C@@H]3C)C[C@H]2OC)O[C@H](C)[C@H]1O[C@@H]1O[C@H](C)[C@@H](O[C@@H]2O[C@H](CO)[C@@H](O)[C@H](O)[C@H]2O)[C@@H](OC)[C@H]1O` (single isomer, unassigned), for which the Activity in the test on Raji [1] is reported as 16%; in the test with Raji [2] it was 6%; with Raji [3] it was 5%; with Raji [4] it was 16%; in the test with Raji [5] it was 15%; in the test on Raji [6], 3%.

Take `COC1C[C@H](O[C@@H]2[C@@H](C)O[C@@H](O[C@H]3[C@@H](OC)C[C@H](O[C@H]4CC[C@@]5(C)C(=CC[C@]6(O)[C@@H]5C[C@@H](OC(C)=O)[C@@]5(C)[C@]6(O)CC[C@@]5(O)[C@H](C)O)C4)O[C@@H]3C)C[C@H]2OC)O[C@H](C)[C@H]1O[C@@H]1O[C@H](C)[C@@H](O[C@@H]2O[C@H](CO)[C@@H](O)[C@H](O)[C@H]2O)[C@@H](OC)[C@H]1O` (single isomer, unassigned): the Activity with Raji [1] worked out at 98%; in the test with Raji [2], 34%; in the test with Raji [3], 30%; with Raji [4], 89%; with Raji [5], 65%; in the test on Raji [6] it was 18%.

For `COC1C[C@H](O[C@H]2[C@@H](OC)C[C@H](O[C@H]3[C@@H](OC)C[C@H](O[C@H]4CC[C@@]5(C)C(=CC[C@]6(O)[C@@H]5C[C@@H](OC(=O)/C=C/c5ccccc5)[C@@]5(C)[C@]6(O)CC[C@@]5(O)[C@H](C)O)C4)O[C@@H]3C)O[C@@H]2C)O[C@H](C)[C@H]1O[C@@H]1O[C@H](C)[C@@H](O[C@@H]2O[C@H](CO)[C@@H](O)[C@H](O)[C@H]2O)[C@@H](OC)[C@H]1O` (single isomer, unassigned), the Activity in the test on Raji [1] turned out to be 59%; with Raji [2] it was 33%; in the test with Raji [3], 18%; in the test with Raji [4], 33%; in the test on Raji [5] it was 16%; in the test with Raji [6], 10%.
